Data as given in ChEMBL document CHEMBL1201862, “PubChem BioAssay data set” (2004).
Where “and” joins values, the source holds several entries; their conditions need not be identical. Equal entries are not always repeated. Calls of active or inactive are those of the source.

Columns and labels:
[1] = target: Eukaryotic elongation factor 2 kinase (Homo sapiens, UniProt O00418); type: functional
[2] = target: Casein kinase I isoform delta (Homo sapiens, UniProt P48730); type: functional;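 further: measured as one member (CSNK1D) of a kinome panel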
[3] = target: Cystic fibrosis transmembrane conductance regulator/Golgi-associated PDZ and coiled-coil motif-containing protein (Homo sapiens, UniProt P13569+Q9HD26); assay: CAL PDZ domain peptide-binding inhibitors, dose response, biochemical, fluorescence polarization, Cer-tagged CAL PDZ, dry powder (AID 602253); type: functional
[4] = CAL PDZ domain peptide-binding inhibitors, dose response, biochemical, fluorescence polarization, untagged CAL PDZ, dry powder (AID 602255); type: functional
[5] = target: Platelet-activating factor acetylhydrolase (Mus musculus, UniProt Q60963); assay: Late stage assay provider results from the probe development effort to identify inhibitors of plasma platelet activating factor acetylhydrolase (pPAFAH): fluorescence-based dose response biochemical gel-based competitive Activity-Based Protein Profiling (ABPP) assay for HTS compounds. [Related pubchem assays (depositor defined):AID463082, AID463092, AID463230, AID588474]; type: cell-free
Sequence of Platelet-activating factor acetylhydrolase (Q60963 whole entry): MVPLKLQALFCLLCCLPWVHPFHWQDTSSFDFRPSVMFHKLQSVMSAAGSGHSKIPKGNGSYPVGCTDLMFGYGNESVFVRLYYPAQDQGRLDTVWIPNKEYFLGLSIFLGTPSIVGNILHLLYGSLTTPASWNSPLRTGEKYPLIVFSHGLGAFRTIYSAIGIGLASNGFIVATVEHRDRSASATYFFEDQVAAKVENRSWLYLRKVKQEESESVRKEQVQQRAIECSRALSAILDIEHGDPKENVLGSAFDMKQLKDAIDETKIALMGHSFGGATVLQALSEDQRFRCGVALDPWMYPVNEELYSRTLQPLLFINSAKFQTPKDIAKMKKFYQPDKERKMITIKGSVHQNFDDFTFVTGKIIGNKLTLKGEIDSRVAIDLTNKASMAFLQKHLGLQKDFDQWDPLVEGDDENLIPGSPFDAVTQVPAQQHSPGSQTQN

[6] = target: Serine/threonine-protein kinase pim-1 (Homo sapiens, UniProt P11309); type: functional
Sequence of Serine/threonine-protein kinase pim-1 (P11309 whole entry): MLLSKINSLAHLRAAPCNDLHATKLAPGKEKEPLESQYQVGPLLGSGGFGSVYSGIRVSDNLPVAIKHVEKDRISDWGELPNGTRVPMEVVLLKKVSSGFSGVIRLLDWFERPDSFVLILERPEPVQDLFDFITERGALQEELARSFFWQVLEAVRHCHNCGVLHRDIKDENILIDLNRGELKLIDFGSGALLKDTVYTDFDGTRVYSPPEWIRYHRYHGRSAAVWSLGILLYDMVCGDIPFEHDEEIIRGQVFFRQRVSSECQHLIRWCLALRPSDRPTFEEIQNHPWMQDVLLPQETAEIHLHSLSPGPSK

[7] = target: Mitogen-activated protein kinase kinase kinase kinase 4 (Homo sapiens, UniProt O95819); type: functional
Sequence of Mitogen-activated protein kinase kinase kinase kinase 4 (O95819 whole entry): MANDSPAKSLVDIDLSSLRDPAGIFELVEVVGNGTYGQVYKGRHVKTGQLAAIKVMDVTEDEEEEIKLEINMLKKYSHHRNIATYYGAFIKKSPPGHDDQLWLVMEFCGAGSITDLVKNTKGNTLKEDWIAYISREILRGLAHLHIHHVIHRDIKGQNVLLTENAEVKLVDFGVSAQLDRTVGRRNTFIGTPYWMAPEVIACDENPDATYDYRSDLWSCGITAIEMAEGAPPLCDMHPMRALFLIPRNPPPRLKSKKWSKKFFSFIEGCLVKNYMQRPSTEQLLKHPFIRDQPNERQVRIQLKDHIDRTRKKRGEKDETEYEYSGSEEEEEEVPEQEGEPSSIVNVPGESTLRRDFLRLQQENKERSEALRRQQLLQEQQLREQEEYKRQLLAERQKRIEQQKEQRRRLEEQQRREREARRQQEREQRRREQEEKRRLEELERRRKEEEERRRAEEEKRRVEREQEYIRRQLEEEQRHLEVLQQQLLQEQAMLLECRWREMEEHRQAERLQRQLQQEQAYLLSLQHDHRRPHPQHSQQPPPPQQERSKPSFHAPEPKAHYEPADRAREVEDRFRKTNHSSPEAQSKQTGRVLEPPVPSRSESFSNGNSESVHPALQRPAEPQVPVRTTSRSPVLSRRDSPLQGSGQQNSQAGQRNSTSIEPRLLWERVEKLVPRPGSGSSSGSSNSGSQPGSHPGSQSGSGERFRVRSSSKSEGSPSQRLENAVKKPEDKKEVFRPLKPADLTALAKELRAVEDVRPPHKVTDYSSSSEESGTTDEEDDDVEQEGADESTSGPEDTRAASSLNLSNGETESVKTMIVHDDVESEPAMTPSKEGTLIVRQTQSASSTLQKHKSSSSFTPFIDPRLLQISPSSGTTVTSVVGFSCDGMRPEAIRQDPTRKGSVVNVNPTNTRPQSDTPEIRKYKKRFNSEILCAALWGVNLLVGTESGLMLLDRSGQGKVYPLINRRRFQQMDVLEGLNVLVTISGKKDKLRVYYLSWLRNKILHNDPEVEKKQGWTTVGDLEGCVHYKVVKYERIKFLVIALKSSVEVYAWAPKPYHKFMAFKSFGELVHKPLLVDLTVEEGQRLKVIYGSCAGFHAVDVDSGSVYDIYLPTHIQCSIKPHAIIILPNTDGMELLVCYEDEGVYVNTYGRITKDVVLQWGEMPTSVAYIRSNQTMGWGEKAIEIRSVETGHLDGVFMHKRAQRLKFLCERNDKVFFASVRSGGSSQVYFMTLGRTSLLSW

[8] = target: DNA dC->dU-editing enzyme APOBEC-3A (Homo sapiens, UniProt P31941); assay: SAR analysis of small molecule inhibitors of APOBEC3A DNA Deaminase via a fluorescence-based single-stranded DNA deaminase assay.; type: functional; details: read-out: IC50_Mean
Sequence of DNA dC->dU-editing enzyme APOBEC-3A (P31941 whole entry): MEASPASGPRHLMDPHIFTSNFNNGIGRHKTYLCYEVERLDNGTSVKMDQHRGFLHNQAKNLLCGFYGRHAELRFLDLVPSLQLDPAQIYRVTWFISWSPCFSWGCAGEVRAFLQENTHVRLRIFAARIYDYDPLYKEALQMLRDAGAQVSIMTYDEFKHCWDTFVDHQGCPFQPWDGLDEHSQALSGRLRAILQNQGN

[9] = target: DNA dC->dU-editing enzyme APOBEC-3G (Homo sapiens, UniProt Q9HC16); assay: APOBEC3G deaminase inhibitors, SAR follow-up, biochemical, fluorescence, single-stranded DNA substrate (AID 602136); type: functional; details: read-out: IC50_Mean
Sequence of DNA dC->dU-editing enzyme APOBEC-3G (Q9HC16 whole entry): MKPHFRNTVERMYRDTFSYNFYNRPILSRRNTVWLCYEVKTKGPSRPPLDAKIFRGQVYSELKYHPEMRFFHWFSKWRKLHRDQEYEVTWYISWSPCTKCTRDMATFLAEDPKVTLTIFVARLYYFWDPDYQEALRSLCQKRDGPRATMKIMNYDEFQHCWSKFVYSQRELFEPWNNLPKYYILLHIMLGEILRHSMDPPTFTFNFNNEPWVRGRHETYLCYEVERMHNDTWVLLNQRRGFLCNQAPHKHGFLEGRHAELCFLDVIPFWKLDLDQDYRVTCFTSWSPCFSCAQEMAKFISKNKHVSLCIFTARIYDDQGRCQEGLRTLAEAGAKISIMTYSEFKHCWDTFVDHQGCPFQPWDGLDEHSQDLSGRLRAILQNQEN

[10] = target: Cytochrome P450 2C9 (Homo sapiens, UniProt P11712)
Sequence of Cytochrome P450 2C9 (P11712 whole entry, the tested form may be a part): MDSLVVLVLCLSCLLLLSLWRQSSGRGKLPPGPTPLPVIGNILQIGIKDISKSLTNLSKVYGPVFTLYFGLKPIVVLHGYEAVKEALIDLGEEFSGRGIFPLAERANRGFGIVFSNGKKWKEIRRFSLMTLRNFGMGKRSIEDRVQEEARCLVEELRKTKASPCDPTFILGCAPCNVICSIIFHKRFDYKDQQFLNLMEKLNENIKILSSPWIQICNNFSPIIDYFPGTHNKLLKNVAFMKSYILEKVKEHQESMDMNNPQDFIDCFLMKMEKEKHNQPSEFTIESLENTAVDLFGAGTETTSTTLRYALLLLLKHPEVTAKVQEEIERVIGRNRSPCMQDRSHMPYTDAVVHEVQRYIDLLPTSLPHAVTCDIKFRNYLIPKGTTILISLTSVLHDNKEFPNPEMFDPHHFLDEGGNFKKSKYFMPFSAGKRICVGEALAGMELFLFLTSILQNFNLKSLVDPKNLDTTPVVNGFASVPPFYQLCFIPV

[11] = target: T1, Hexokinase HKDC1 (Homo sapiens, UniProt Q2TB90); assay: SAR analysis of small molecule inhibitors of hexokinase domain containing I (HKDC1). [Related pubchem assays (depositor defined):AID493160, AID493190]; type: functional
T1 sequence (Q2TB90 whole entry): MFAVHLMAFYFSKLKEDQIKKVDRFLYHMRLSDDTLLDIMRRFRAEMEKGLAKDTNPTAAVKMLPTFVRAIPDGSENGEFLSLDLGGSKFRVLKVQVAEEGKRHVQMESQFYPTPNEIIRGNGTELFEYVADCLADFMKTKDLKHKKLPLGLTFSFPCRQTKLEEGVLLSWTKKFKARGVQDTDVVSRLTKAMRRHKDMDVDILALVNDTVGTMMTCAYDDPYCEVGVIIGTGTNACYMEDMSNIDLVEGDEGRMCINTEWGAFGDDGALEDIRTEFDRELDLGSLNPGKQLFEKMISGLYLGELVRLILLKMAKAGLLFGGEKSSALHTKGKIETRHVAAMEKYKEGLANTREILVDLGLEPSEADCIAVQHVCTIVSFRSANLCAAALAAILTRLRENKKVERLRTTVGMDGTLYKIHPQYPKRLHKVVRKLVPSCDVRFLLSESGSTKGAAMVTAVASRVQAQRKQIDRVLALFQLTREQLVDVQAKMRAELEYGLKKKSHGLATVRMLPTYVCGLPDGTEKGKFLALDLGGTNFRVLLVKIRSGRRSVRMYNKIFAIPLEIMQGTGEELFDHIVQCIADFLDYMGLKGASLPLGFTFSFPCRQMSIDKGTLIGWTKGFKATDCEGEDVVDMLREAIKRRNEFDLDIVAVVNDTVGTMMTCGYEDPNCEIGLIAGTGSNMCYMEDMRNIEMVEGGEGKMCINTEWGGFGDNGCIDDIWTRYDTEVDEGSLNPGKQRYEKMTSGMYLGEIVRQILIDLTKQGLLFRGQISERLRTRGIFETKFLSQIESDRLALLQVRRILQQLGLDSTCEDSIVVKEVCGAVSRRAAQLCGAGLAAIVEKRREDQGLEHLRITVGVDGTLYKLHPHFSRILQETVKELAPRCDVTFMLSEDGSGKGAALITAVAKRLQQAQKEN

[12] = target: RNA-editing ligase 1, mitochondrial (Trypanosoma brucei brucei, UniProt P86926); assay: TbREL1 ligase inhibitors, dose response, biochemical, fluorescence, Trypanosoma brucei (AID 1117295); type: functional
Sequence of RNA-editing ligase 1, mitochondrial (P86926 whole entry): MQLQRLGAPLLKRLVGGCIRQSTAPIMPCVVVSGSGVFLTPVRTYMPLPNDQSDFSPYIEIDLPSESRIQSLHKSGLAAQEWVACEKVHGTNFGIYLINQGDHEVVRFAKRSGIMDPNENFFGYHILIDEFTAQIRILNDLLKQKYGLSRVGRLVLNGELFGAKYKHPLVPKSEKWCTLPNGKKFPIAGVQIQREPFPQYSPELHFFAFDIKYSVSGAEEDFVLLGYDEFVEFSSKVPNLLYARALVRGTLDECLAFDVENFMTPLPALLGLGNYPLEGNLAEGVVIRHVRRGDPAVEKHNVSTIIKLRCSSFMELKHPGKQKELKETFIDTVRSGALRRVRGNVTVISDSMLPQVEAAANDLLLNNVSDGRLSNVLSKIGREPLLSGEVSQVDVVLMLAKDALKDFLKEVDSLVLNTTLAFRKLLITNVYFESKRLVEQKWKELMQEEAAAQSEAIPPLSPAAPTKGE

[13] = target: Eukaryotic translation initiation factor 4E (Mus musculus, UniProt P63073); assay: eIF4E–eIF4G protein interaction inhibitors, dose response, biochemical, TR-FRET (AID 855); type: functional;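 further: potency for disrupting eIF4E binding to eIF4GI seen as loss of FRET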
Sequence of Eukaryotic translation initiation factor 4E (P63073 whole entry): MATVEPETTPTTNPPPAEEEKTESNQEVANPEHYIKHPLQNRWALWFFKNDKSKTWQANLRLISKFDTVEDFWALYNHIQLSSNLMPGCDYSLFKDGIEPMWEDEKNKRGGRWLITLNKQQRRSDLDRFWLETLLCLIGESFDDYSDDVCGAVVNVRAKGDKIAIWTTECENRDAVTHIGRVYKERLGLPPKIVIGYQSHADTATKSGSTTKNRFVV

[14] = target: T2, Hexokinase-1 (Homo sapiens, UniProt P19367); assay: HK1 enzyme inhibition by HKDC1 hits, SAR follow-up, selectivity assay for HKDC1 inhibitor project, biochemical, set 2, resazurin fluorescence coupled readout (AID 588356); type: functional
T2 sequence (P19367 whole entry): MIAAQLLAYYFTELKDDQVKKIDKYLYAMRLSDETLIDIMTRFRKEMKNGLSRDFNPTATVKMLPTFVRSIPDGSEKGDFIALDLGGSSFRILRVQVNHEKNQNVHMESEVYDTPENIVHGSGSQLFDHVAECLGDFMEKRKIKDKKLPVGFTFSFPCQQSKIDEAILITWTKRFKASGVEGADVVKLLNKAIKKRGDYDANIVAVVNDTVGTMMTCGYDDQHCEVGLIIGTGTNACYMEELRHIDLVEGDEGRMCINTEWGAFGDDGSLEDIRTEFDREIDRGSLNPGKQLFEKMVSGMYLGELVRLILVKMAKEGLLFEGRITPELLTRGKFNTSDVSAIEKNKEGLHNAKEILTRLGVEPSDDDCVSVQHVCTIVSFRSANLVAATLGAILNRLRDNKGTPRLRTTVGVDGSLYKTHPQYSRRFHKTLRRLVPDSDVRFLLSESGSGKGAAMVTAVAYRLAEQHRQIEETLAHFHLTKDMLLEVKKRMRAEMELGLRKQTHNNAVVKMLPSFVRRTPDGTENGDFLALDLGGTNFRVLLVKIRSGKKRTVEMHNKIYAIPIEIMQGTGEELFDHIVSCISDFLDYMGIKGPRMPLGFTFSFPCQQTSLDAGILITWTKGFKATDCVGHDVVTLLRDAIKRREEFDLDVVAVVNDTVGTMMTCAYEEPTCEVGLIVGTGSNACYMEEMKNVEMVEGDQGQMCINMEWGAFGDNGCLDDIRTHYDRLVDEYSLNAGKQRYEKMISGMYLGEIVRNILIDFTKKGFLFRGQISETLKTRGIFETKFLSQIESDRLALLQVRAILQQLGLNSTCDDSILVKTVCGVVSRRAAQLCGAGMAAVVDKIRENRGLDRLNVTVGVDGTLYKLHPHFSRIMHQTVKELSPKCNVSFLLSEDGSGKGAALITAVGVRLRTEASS

[15] = target: T1, Hexokinase HKDC1; assay: SAR analysis of small molecule inhibitors of hexokinase domain containing I (HKDC1) - Set 3. [Related pubchem assays (depositor defined):AID493160, AID493190]; type: functional
[16] = target: T2, Hexokinase-1; assay: SAR analysis of small molecule inhibitors of hexokinase domain containing I (HKDC1) in the hexokinase 1 selectivity assay. [Related pubchem assays (depositor defined):AID493160, AID493190]; type: functional
[17] = target: T1, Hexokinase HKDC1; assay: HKDC1 hexokinase inhibitors, SAR follow-up, biochemical, set 2 (AID 588355); type: functional
[18] = target: T3, Cytochrome P450 1A2 (Homo sapiens, UniProt P05177);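 further: PubChem cytochrome P450 panel assay, CYP1A2 panel member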
T3 sequence (P05177 whole entry): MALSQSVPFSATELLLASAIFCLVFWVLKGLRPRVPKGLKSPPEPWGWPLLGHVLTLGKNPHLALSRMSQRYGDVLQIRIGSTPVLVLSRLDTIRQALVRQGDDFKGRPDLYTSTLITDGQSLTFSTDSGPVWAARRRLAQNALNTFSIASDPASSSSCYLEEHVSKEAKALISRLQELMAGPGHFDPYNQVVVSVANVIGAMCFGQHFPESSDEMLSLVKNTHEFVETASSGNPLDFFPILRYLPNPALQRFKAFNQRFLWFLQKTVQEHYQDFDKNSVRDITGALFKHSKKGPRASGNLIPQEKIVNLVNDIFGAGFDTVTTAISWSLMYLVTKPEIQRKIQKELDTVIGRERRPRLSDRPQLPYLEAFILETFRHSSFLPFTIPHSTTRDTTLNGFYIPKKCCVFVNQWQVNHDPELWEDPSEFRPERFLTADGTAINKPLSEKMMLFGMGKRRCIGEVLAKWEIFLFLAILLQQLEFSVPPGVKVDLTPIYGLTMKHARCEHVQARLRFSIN

[19] = target: T1, Hexokinase HKDC1; assay: HKDC1 hexokinase inhibitors, dose response, biochemical, W721R variant (AID 504729); type: functional
[20] = tested on: CHO-K1; assay: (§1) Counterscreen for antagonists of the orexin 1 receptor (OX1R; HCRTR1): Homogeneous time resolved fluorescence (HTRF)-based cell-based dose response assay to identify antagonists of the parental CHO-K1 cell line. [Related pubchem assays (depositor defined):AID434989, AID435008, AID463079, AID485270, AID492963, AID492964, AID492965, AID493232, AID504699, AID504701]; type: functional; details: Cricetulus griseus
[21] = target: T4, Orexin receptor type 2 (Homo sapiens, UniProt O43614); assay: Counterscreen assay for antagonists of the orexin 1 receptor (OX1R; HCRTR1): Fluorescence-based cell-based dose response assay for antagonists of the orexin 2 receptor (OX2R; HCRTR2), run by assay provider.; type: functional
T4 sequence (O43614 whole entry): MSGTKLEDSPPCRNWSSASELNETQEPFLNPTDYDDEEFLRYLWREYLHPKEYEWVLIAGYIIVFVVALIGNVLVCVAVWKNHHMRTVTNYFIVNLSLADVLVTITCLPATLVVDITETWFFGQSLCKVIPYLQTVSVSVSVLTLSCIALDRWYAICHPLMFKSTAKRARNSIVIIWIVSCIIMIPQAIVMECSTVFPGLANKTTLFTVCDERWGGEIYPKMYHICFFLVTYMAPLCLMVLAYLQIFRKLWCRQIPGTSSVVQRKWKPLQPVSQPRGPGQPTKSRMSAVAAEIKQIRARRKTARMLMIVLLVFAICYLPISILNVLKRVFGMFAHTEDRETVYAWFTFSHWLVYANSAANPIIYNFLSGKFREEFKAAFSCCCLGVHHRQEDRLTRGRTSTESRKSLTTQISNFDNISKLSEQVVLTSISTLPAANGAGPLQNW

[22] = target: T5, Orexin/Hypocretin receptor type 1 (Homo sapiens, UniProt O43613); assay: (§2) Fluorescence-based cell-based high throughput dose response assay for antagonists of the orexin 1 receptor (OX1R; HCRTR1). [Related pubchem assays (depositor defined):AID434989, AID435008, AID463079, AID485270, AID492963, AID492964, AID492965, AID493232, AID504717, AID504718]; type: functional
T5 sequence (O43613 whole entry): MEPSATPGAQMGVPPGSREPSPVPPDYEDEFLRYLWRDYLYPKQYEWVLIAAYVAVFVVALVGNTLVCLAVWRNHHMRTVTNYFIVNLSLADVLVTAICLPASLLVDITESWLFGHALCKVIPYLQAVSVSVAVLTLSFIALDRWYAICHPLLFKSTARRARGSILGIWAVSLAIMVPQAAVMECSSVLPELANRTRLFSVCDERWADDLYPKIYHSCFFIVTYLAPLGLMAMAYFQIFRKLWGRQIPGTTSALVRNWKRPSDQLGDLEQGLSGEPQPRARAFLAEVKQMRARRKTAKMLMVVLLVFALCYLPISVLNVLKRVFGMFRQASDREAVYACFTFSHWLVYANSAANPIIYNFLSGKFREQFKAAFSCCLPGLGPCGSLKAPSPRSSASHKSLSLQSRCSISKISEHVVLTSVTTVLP

[23] = target: T5, Orexin/Hypocretin receptor type 1; assay: as §2, with “Homogeneous Time Resolved Fluorescence (HTRF)-based” for “Fluorescence-based”; type: functional
[24] = target: T4, Orexin receptor type 2; assay: Counterscreen assay for antagonists of the orexin 1 receptor (OX1R; HCRTR1): Homogeneous Time Resolved Fluorescence (HTRF)-based cell-based dose response assay for antagonists of the orexin 2 receptor (OX2R; HCRTR2), run by assay provider.; type: functional
[25] = as §1, with “Fluorescence-based” for “Homogeneous time resolved fluorescence (HTRF)-based”, “cell-based high throughput” for “cell-based”, “CHO” for “CHO-K1”; type: functional

Sequence of Eukaryotic elongation factor 2 kinase (O00418 whole entry, canonical isoform): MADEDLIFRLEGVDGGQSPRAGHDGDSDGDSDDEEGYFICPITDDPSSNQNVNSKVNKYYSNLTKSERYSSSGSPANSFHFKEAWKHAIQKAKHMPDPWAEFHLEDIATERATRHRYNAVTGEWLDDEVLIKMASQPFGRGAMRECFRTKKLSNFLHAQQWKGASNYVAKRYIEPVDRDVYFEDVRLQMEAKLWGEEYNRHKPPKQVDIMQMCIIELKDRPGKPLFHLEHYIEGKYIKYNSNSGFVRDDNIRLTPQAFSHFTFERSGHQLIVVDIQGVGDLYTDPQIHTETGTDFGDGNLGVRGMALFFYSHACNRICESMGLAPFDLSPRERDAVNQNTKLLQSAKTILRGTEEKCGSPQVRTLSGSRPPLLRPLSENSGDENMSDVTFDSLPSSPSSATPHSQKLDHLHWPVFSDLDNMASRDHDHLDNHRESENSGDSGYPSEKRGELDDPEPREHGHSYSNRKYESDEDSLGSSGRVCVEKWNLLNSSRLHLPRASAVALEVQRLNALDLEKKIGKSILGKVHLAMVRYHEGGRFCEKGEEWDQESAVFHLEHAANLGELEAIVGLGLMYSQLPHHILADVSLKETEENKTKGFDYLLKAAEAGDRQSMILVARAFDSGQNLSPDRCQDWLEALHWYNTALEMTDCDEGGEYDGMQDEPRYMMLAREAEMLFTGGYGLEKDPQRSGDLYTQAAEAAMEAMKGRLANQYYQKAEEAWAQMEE

SMILES: CNC1CC2OC(C)(C1OC)n1c3ccccc3c3c4c(c5c6ccccc6n2c5c31)C(=O)NC4 (stereo not given)
- Ki [1]: > 1 µM (inactive)
- Ki [2]: > 2.51 µM (inactive)

SMILES: CCc1ccc(S(=O)(=O)/N=C2\C=C(SC3=NCN=N3)C(=O)c3ccccc32)cc1
- AC50 [3]: 41.5 µM (active)
- AC50 [4]: 44.5 µM (active)

SMILES: O=C(Oc1ccc(-c2ccccc2)cc1)N1CCOCC1
- IC50 [5]: 0.469 µM (active)

SMILES: Clc1ccc(OCC2CN(Cc3c[nH]c4ncccc34)CCO2)cc1 (stereo not given)
- Ki [6]: 2 µM (active)
- Ki [7]: 1.26 µM (active)

SMILES: Cc1nnc(NC(=O)C2(c3ccc(F)cc3)CCC2)s1
- IC50 [8]: > 99 µM (inactive)
- IC50 [9]: > 99 µM (inactive)

SMILES: COc1cc2c(cc1OC)-c1cc(NCc3ccccn3)nc(=O)n1CC2
- AC50 [10]: 7.94 µM (inconclusive)
- IC50 [11]: 12.4 µM (active)
- IC50 [12]: 14.7 µM (inactive)
- IC50 [13]: 9.21 µM (active)
- IC50 [14]: > 80 µM (inactive)
- IC50 [15]: > 80 µM (inactive) and 12.1 µM (active)
- IC50 [16]: > 80 µM (inactive)
- IC50 [17]: > 80 µM (inactive) and 11.7 µM (active)
- AC50 [18]: 35.5 µM (inconclusive)
- IC50 [19]: 8.47 µM (active)

SMILES: Cc1cccc(OCCSc2nc3ccccc3n2CCC(=O)O)c1
- IC50 [20]: > 66.2 µM (inactive)
- IC50 [21]: 88.2 µM (inactive)
- IC50 [22]: 19.6 µM (inactive)
- IC50 [23]: 1.57 µM (active)
- IC50 [24]: > 50 µM (inactive)
- IC50 [25]: > 49.8 µM (inactive)
